Activity calls are given as the source filed them. No cut-off for these calls is given here.
What was measured:
[1] = biological target: T1, P2X purinoceptor 7 (Rattus norvegicus, UniProt Q64663); assay: Antagonist activity at rat recombinant P2X7 receptor assessed as inhibition of calcium flux by FLIPR assay; assay type: functional
T1 sequence (Q64663 whole entry): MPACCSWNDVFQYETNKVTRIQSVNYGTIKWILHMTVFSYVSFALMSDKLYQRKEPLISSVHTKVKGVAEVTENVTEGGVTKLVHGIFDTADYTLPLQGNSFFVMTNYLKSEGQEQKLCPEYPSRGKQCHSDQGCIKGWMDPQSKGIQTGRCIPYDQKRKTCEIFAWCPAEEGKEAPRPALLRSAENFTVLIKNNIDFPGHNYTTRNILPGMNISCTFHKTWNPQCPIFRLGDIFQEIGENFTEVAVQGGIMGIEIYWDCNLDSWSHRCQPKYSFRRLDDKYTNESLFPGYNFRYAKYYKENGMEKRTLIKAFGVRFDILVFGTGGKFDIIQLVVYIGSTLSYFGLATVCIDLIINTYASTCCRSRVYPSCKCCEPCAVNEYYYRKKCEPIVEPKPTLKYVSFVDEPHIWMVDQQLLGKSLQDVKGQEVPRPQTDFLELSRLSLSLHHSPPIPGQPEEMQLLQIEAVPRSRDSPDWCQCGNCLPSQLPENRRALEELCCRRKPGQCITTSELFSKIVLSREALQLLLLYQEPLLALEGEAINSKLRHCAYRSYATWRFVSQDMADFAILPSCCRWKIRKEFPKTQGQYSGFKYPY

[2] = biological target: T2, P2X purinoceptor 7 (Homo sapiens, UniProt Q99572); assay: Antagonist activity at human recombinant P2X7 receptor assessed as inhibition of calcium flux by FLIPR assay; assay type: functional
T2 sequence (Q99572 whole entry): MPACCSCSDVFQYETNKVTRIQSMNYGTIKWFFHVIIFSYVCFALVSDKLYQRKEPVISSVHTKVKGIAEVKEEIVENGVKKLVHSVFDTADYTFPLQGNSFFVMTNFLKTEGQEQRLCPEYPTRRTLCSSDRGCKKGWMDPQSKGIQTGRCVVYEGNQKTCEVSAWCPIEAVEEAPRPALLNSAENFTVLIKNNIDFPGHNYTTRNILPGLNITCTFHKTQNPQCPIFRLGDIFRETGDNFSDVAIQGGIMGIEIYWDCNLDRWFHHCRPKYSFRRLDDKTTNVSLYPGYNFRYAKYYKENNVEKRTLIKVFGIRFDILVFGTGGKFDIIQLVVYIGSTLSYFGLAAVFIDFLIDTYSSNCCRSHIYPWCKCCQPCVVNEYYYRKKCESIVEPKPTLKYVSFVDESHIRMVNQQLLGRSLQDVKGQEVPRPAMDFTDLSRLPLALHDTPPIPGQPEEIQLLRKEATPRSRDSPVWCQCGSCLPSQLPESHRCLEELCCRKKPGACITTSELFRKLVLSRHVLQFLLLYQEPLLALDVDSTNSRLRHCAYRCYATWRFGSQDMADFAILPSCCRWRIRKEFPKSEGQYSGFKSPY

[3] = Inhibition of P2X2/3 receptor at 10 uM
[4] = biological target: P2Y purinoceptor 2 (Homo sapiens) (UniProt P41231); assay: Inhibition of P2Y2 receptor at 10 uM
Sequence of P2Y purinoceptor 2 (Homo sapiens) (P41231 whole entry): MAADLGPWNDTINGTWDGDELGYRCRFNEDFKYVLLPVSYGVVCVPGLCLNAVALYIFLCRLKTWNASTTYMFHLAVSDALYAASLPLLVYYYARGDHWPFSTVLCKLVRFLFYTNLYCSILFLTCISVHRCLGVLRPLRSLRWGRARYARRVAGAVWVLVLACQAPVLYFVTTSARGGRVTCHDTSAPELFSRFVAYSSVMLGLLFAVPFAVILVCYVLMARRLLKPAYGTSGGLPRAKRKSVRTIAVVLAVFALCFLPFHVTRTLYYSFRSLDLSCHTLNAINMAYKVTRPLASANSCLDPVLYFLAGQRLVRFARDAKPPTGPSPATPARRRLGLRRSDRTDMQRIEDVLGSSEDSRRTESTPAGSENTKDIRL

[5] = biological target: T3, P2X purinoceptor 3 (Homo sapiens) (UniProt P56373); assay: Inhibition of P2X3 receptor at 10 uM
T3 sequence (whole entry): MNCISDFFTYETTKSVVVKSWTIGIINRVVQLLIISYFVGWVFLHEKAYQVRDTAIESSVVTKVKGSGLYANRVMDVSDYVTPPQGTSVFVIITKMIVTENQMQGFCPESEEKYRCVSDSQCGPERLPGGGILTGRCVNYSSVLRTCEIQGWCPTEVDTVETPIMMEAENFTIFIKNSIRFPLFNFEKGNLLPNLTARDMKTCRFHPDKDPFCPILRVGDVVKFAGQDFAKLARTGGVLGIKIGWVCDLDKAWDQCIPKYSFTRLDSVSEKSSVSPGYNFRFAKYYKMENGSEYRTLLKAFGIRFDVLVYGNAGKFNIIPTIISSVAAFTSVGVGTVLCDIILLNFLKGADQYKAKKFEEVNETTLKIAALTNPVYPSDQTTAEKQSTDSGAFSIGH

[6] = biological target: T4, P2X purinoceptor 4 (Homo sapiens) (UniProt Q99571); assay: Inhibition of P2X4 receptor at 10 uM
T4 sequence (whole entry): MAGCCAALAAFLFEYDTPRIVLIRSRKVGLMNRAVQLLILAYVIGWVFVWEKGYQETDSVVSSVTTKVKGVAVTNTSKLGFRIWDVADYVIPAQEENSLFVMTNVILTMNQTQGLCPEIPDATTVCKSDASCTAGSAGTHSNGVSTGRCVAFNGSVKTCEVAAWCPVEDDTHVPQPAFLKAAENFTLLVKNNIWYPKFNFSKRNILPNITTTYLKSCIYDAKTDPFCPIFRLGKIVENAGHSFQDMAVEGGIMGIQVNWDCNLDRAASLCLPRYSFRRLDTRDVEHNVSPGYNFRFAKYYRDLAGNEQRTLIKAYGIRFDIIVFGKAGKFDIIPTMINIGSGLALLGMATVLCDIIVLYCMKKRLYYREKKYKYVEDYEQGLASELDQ

SMILES | IC50 [1] [nM] | IC50 [2] [nM] | further results
COc1ccc(CC(=O)N2CCN(C(=Nc3ccccc3C)NC#N)CC2c2ccccc2)cc1OC (stereo in doubt; 7) | 140 | 58 | 
COc1ccc(C(=O)N2CCN(C(=Nc3cccc4ncccc34)NC#N)CC2c2ccccc2)cc1OC (stereo unspecified) | 30 | 59 | 
Cc1ccn(CC(=O)N2CCN(/C(=N/C#N)Nc3ccccc3C)CC2c2ccccc2)n1 (stereo unspecified) | 320 | 40 | 
COc1ccc(CC(=O)NC(NC(=NC#N)Nc2ccccc2C)C(C)(C)C)cc1OC (stereo unspecified) | 14 | 120 | 
Cc1ccccc1N/C(=N\C#N)N1CCN(C(=O)Cn2nccc2C)C(c2ccccc2)C1 (stereo unspecified) | 560 | 60 | 
Cc1ccccc1N/C(=N\C#N)N1CCN(C(=O)Cc2cccs2)C(c2ccccc2)C1 (stereo unspecified) | 150 | 46 | 
Cc1ccccc1N/C(=N\C#N)N1CCN(C(=O)Cc2ccoc2)C(c2ccccc2)C1 (stereo unspecified) | 250 | 220 | 
COc1ccc(CC(=O)N2CCN(/C(=N/C#N)Nc3ccccc3C)CC2C(C)(C)C)cc1OC (stereo unspecified) | 420 | 190 | 
COc1ccc(CCCC(=O)N2CCN(/C(=N/C#N)Nc3ccccc3C)CC2c2ccccc2)cc1OC (stereo unspecified) | 95 | 70 | 
COc1ccc(CCC(=O)N2CCN(/C(=N/C#N)Nc3ccccc3C)CC2c2ccccc2)cc1OC (stereo unspecified) | 76 | 57 | 
Cc1ccccc1N/C(=N\C#N)N1CCN(C(=O)Cc2c[nH]c3ccccc23)C(c2ccccc2)C1 (stereo unspecified) | 210 | 100 | 
Cc1cc(CC(=O)N2CCN(/C(=N/C#N)Nc3ccccc3C)CC2c2ccccc2)no1 (stereo unspecified) | 610 | 410 | 
Cc1ccccc1N=C(NC#N)N1CCN(C(=O)Cc2ccc(Cl)cc2)C(c2ccccc2)C1 (stereo unspecified) | 110 | 140 | 
COc1ccc(CC(=O)N2CCN(C(=Nc3ccccc3C)NC#N)CC2c2ccccc2)cc1OC (stereo in doubt; 26) | 140 | 58 | 
Cc1ccccc1N/C(=N\C#N)N1CCN(C(=O)Cc2ccsc2)C(c2ccccc2)C1 (stereo unspecified) | 270 | 71 | 
COc1ccc(CC(=O)NC(N/C(=N/C#N)Nc2cccc3ncccc23)C(C)(C)C)cc1OC (stereo unspecified) |  | 44 | 
COc1ccc(CC(=O)N2C(C)CN(C(=Nc3ccccc3C)NC#N)CC2C)cc1OC (cis isomer) | 19000 | 460 | 
Cc1ccccc1N=C(NC#N)N1CCN(C(=O)Cc2ccncc2)C(c2ccccc2)C1 (stereo unspecified) | 150 | 36 | 
Cc1ccccc1N/C(=N\C#N)N1CCN(C(=O)Cc2ccc3ccccc3c2)C(c2ccccc2)C1 (stereo unspecified) | 140 | 310 | 
COc1ccc(C(=O)N2CCN(C(=Nc3ccccc3C)NC#N)CC2c2ccccc2)cc1OC (stereo unspecified) | 290 | 94 | 
Cc1cc(CC(=O)N2CCN(C(=Nc3ccccc3C)NC#N)CC2c2ccccc2)on1 (stereo unspecified) | 170 | 46 | 
Cc1ccccc1N=C(NC#N)N1CCN(C(=O)Cc2ccco2)C(c2ccccc2)C1 (stereo unspecified) | 520 | 110 | 
COc1ccc(C(=O)N2CCN(/C(=N/C#N)Nc3cccc4ncccc34)CC2c2ccccc2)cc1OC (stereo unspecified) |  |  | Activity [3]: inactive; Activity [4]: inactive; Activity [5]: inactive; Activity [6]: inactive
Cc1ccccc1N/C(=N\C#N)N1CCN(C(=O)Cc2c[nH]cn2)C(c2ccccc2)C1 (stereo unspecified) | 14000 | 1000 | 
Cc1ccccc1N/C(=N\C#N)N1CCN(C(=O)CC23CC4CC(CC(C4)C2)C3)C(c2ccccc2)C1 (stereo unspecified) | 630 | 1500 | 
Cc1ccccc1N/C(=N\C#N)N1CCN(C(=O)Cc2cccnc2)C(c2ccccc2)C1 (stereo unspecified) | 390 | 40 | 
COc1ccc(CC(=O)N2CCN(C(=Nc3ccccc3C)NC#N)C(c3ccccc3)C2)cc1OC (stereo unspecified) | 220 | 51 | 
Cc1ccccc1N=C(NC#N)N1CCN(C(=O)Cc2ccccc2)C(c2ccccc2)C1 (stereo unspecified) | 380 | 88 | 
COc1ccc(CC(=O)N2CCN(C(=Nc3ccccc3C)NC#N)[C@H](C(C)C)C2)cc1OC | 16000 | 1300 | 
COc1ccc(CC(=O)N2CCN(C(=Nc3ccccc3C)NC#N)[C@H](CC(C)C)C2)cc1OC | 4500 | 430 | 

— ChEMBL document CHEMBL1143222, “Synthesis and in vitro activity of N'-cyano-4-(2-phenylacetyl)-N-o-tolylpiperazine-1-carboximidamide P2X7 antagonists” (Bioorg Med Chem Lett, 2008)
